Experiments:
Assay type in all cases: physicochemical
[1] = Adsorption of liquid ethanol or acetic acid on saccharide powder (Example C-1); settings: until mixture did not keep a powder form; for Amount of Adsorbed Acetic Acid: acetic acid adsorbed on 1 g of saccharide; for Amount of Adsorbed Ethanol: ethanol adsorbed on 1 g of saccharide
Text: CTS crystalline pentahydrate, prepared by the method described in Example B-3, CTS crystalline monohydrate, prepared by the method described in Example B-4, CTS crystalline anhydrate, prepared by the method described in Example B-5, or CTS amorphous anhydrate prepared by the method described in Example B-6, was used for preparation of aroma-retaining material. “ISOELEAT P™”, a branched cyclodextrin commercialized by Maruha corporation, Tokyo, Japan, anhydrous trehalose prepared by the method described in Japanese Patent Kokai No. 111,284/97, “PINEFIBRE™”, a dextrin commercialized by Matsutani Chemical Industries Co., Ltd., Tokyo, Japan, or soluble starch in a reagent grade commercialized by Katayama Chemical Industries, Co., Ltd., Tokyo, Japan, was dried in vacuo at 80° C. for 16 hours as control saccharides. […] The resulting mixture was weighed. The weight of ethanol or acetic acid was calculated by subtracting the pre-measured saccharide weight. The weight of ethanol or acetic acid adsorbed on 1 g of each saccharide was in Table 1.

[2] = Effect of suppressing volatilization: retained ethanol by gas chromatography (Example C-2); settings: for Amount of Retained Ethanol: per 1 g of material
Protocol: About 5 g of an ethanol-retaining material with CTS crystalline anhydrate, branched cyclodextrin, anhydrous trehalose, or dextrin, prepared freshly by the method described in Example C-1, was taken into a 20 ml volume of glass vials. The vials were placed under normal pressure and room temperature for the purpose of evaporating ethanol. The amount of retained ethanol in samples freshly prepared, or after two hours later, four hours later, eight hours later, or 24 hours later, was measured by dissolving each sample in about 10 ml of water, diluting it with water to give a volume of 100 ml in a glass measuring flask, and measuring the amount of ethanol dissolved in the resulting aqueous solution by a gas chromatography. In the case of a soluble starch as a sample, additional centrifuging was carried out after diluting up to 100 ml. The above gas chromatography was carried out using “GC-14B” (a gas liquid chromatography commercialized by Shimazu Corporation, Kyoto, Japan) equipped with “TC-5” (a capillary column sized 0.53 mm in diameter and 15 m in length, commercialized by GL Sciences Inc., Tokyo, Japan). The amount of retained ethanol per 1 g of each material is in Table 2.
In this table, each value in the parentheses means a relative percentage to the ethanol amount (100%) just after its preparation.

[3] = Adsorption and 10-day retention of lavender oil, citronellol or phenethyl alcohol on saccharides (Example C-4); settings: for Amount of the Adsorbed Substance: freshly prepared sample; for Relative Amount of the Retained Substance: preserved at 25° C. for 10 days vs freshly prepared
Text: The following example is a test to confirm the effect of CTS crystalline hydrate, CTS crystalline anhydrate, or CTS amorphous anhydrate on retaining, as an aromatic substance, lavender oil, citronellol, or phenethyl alcohol. CTS crystalline pentahydrate prepared by the method described in Example B-3, CTS crystalline anhydrate in Example B-5, and CTS amorphous anhydrate in Example B-6 were used as the test saccharides “ISOELEAT P®”, a branched cyclodextrin commercialized by Maruha Corporation, Tokyo, Japan, was used as a control.
In the case of lavender oil, five parts by weight of each of the above saccharides were taken into a glass dish sized 90 mm in diameter and 20 mm in depth, admixed with one part by weight of lavender oil by stirring. Lavender oil was measured by the method described as follows; admixing 2 ml of diethyl ether with 1 g of each of the above samples freshly prepared or after preserved at 25° C. for 10 days; measuring the extracted lavender oil by gas chromatography using “GC-14B” (a gas chromatography commercialized by Shimazu corporation, Kyoto, Japan) equipped with “TC-Wax” (a capillary column sized 0.53 mm in diameter and 25 m in length commercialized by GL Sciences Inc., Tokyo, Japan.
In the case of citronellol or phenethyl alcohol, five parts by weight of each of the above saccharides were taken into a glass dish sized 90 mm in diameter and 20 mm in depth, admixed with one part by weight of citronellol or phenethyl alcohol, and mixed by stirring. The adsorbed citronellol or phenethyl alcohol was measured by admixing 2 ml of diethyl ether with 1 g of each of the above sample freshly prepared or after preserved at 25° C. for 10 days, and measuring the extracted lavender oil by gas chromatography using “GC-14B” (a gas chromatography device commercialized by Shimazu corporation, Kyoto, Japan) equipped with “DB-5” (a capillary column sized 0.25 mm in diameter and 30 m in length commercialized by GL Sciences Inc., Tokyo, Japan).
The amount of the retained aromatic substance in each sample was calculated using the following formula, and the results were shown in Table 4.
Formula: Relative amount of the retained Substance (%)={(an amount of aromatic substance in a sample preserved for 10 days)/(an amount of aromatic substance in a freshly prepared sample)}×100

[4] = 2 h later, normal pressure, room temperature
[5] = 4 h later, normal pressure, room temperature
[6] = 8 h later, normal pressure, room temperature
[7] = 24 h later, normal pressure, room temperature
[8] = citronellol, listed as Sample 2
[9] = lavender oil, listed as Sample 2
[10] = phenethyl alcohol, listed as Sample 2

SMILES | Amount of Adsorbed Acetic Acid [1] [g] | Amount of Adsorbed Ethanol [1] [g] | Relative percentage to the ethanol amount just after preparation ([2]; 2 h later) | Relative percentage to the ethanol amount just after preparation ([2]; 4 h later) | Relative percentage to the ethanol amount just after preparation ([2]; 8 h later) | Relative percentage to the ethanol amount just after preparation ([2]; 24 h later) | Relative percentage to the ethanol amount just after preparation ([2]; freshly prepared) | Amount of Retained Ethanol [2, 4] [mg] | Amount of Retained Ethanol [2, 5] [mg] | Amount of Retained Ethanol [2, 6] [mg] | Amount of Retained Ethanol [2, 7] [mg] | Amount of Retained Ethanol ([2]; freshly prepared) [mg] | also measured
OC[C@H]1O[C@H](O[C@H]2O[C@H](CO)[C@@H](O)[C@H](O)[C@H]2O)[C@H](O)[C@@H](O)[C@@H]1O [Anhydrous trehalose, reference compound] | 0.18 | 0.25 | (51%) | (8%) | (4%) | (2%) | (100%) | 103 | 17 | 8 | 5 | 203 | 
OCC1OC2OCC3O[C@H](O[C@H]4C(O)C(CO)OC(OCC5O[C@H](O[C@@H](C1O)C2O)C(O)C(O)[C@@H]5O)C4O)C(O)C(O)[C@@H]3O (some centres unmarked) [CTS crystalline anhydrate] | 0.47 | 0.50 | (101%) | (87%) | (3%) | (2%) | (100%) | 335 | 290 | 10 | 5 | 333 | Adsorbing capability relative to branched cyclodextrin ([3]; citronellol): about 1.2 fold; Amount of the Adsorbed Substance ([3]; citronellol): 195 mg/g saccharide; Amount of the Adsorbed Substance [3, 8]: 195 mg/g saccharide; Relative Amount of the Retained Substance [3, 8]: 42%; Adsorbing capacity relative to branched cyclodextrin ([3]; lavender oil): about 1.3 fold; Amount of the Adsorbed Substance ([3]; lavender oil): 190 mg/g saccharide; Amount of the Adsorbed Substance [3, 9]: 190 mg/g saccharide; Relative Amount of the Retained Substance [3, 9]: 12%; Amount of the Adsorbed Substance ([3]; phenethyl alcohol): 190 mg/g saccharide; Amount of the Adsorbed Substance [3, 10]: 190 mg/g saccharide; Relative Amount of the Retained Substance [3, 10]: 16%

Source: patent US20050013914A1, “Method of sustaining aroma and use thereof” (priority 2001, published 2005)
